Patent US20190353647A1, “NOVEL REAL-TIME MULTIPLEXED, MULTI-COLOR BIOLUMINESCENCE RESONANCE ENERGY TRANSFER ASSAY, APPARATUS, AND USES THEREOF” (Universite de Bordeaux, priority 2016, published 2019)

Target: T1, TRPV1 (Homo sapiens, UniProt Q8NER1)
T1 construct: expressed in transfected cells; host or cells: HEK293T
Assay: Intermolecular BRET assay, TRPV1-Luc/YFP-CaM in HEK293T cells
Type: cell-based
Settings: TRPV1-Luc/YFP-CaM
Source text: In order to generate the BRET constructs, super Yellow Fluorescent Protein 2 and Renilla Luciferase II were used to improve the brightness of the assay. They were referred as YFP and Luc for short in the rest of the manuscript. The cDNA of Luc and YFP were first cloned together using a three-piece ligation in the BamHI/XhoI site of pcDNA3.1(+) (Invitrogen, Carlsbad, Calif., USA), yielding two expression vectors pcDNA3.1 YFP-Luc where YFP was cloned in-fusion at the N-terminal of Luc, and pcDNA3.1 Luc-YFP where Luc was cloned in-fusion at the N-terminal of YFP. Both YFP and Luc were amplified by PCR from the pcDNA3-YFP-EPAC-Luc vector. Luc was cloned either at the N-terminal of YFP as a HindIII-EcoRI fragment (primers used: “Luc_HindIII_ATGN-term sense” and “Luc_no Stop_EcoRI_N-term antisense”) or at the COOH-terminal of YFP as an EcoRI-XhoI fragment (primer used: “Luc_EcoRI_ATG_C-term sense” and “Luc_XhoI_Stop_C-term antisense”). In parallel, YFP was cloned either at the N-terminal of Luc as a HindIII-EcoRI fragment (primers used: “YFP_HindIII_ATG_N-term sense” and “YFP_no Stop_EcoRI_N-term antisense”) or at the COOH-terminal of Luc as a EcoRI-XhoI fragment (primer used: “YFP_EcoRI_ATG_C-term sense” and “YFP_XhoI_Stop_C-term antisense”). The sequence joining Luc and YFP sequence encoded […] (SEQ ID NO: 18) as a linker, and contained an AgeI restriction site. The YFP-hTRPV1-Luc expression vector was obtained by subcloning the human TRPV1 cDNA from the pDONR201-hTRPV1 vector (Harvard Medical School PlasmID Repository, clone HsCD00081472) as an EcoRI PCR fragment in the EcoRI site of the vector pcDNA3.1 YFP-Luc (primer used: “hTRPV1_EcoRI_Fus_Sense” and “hTRPV1_EcoRI_Fus_antisense”). The hTRPV1-Luc expression vector was obtained by subcloning the cDNA of hTRPV1 as a HindIII-EcoRI fragment in place of the YFP in the HindIII-EcoRI site of the pcDNA3.1 YFP-Luc vector (primer used: “hTRPV1_HindIII_ATG_Sense” and “hTRPV1_EcoRI_Fus_antisense”). The Luc-hTRPV3 expression vector was obtained by subcloning the cDNA of hTRPV3 (Harvard Medical School PlasmID Repository, clone HsCD00341603) as a AgeI-XhoI fragment in place of the YFP in the AgeI-XhoI sites of the pcDNA3.1 Luc-YFP vector (primer used: “hTRPV3_AgeI_ATG_Sense” and “hTRPV3_Stop_XhoI_antisense”). The hTRPV4-Luc expression vector was obtained by subcloning the cDNA of hTRPV4 as a BamHI-AgeI fragment in place of the YFP in the BamHI-AgeI site of the pcDNA3.1 YFP-Luc vector (primer used: “hTRPV4_BamHI_ATG_Sense” and hTRPV4_AgeI_Fus_antisense”). In each case, the sequence joining the cDNA of interest and either Luc or YFP sequence encoded […] (SEQ ID NO: 18) as a linker.
The cDNA of mAmetrine (Plasmid #54660) and LssmOrange (Plasmid #37130) were obtained from AddGene plasmid repository. The cDNA of aquamarine, mAmetrine and LssmOrange were all subcloned as a HindIII-EcoRI fragment in place of the YFP in the HindIII-EcoRI site of the pcDNA3.1 YFP-Luc vector (primer used: “YFP_HindIII_ATG_N-term sense” and “YFP_no Stop_EcoRI_N-term antisense”) to yield pcDNA3.1 FP-Luc expression vectors (“FP” being any fluorescent protein between aquamarine, mAmetrine and LssmOrange). […] A similar strategy was used to obtain the FP-CaM expression vector using the pcDNA3.1 FP-Luc expression vector instead of the pcDNA3.1 YFP-Luc.
HEK293T cells were maintained in Dulbecco's modified Eagle's medium-high Glucose (DMEM) (D6429, Sigma) supplemented with 10% fetal bovine serum, 100 units mL-1 penicillin and streptomycin. Twenty-four hours before transfection, cells were seeded at a density of 500,000 cells in 6-well dishes. Transient transfections were performed using polyethylenimine (PEI, linear, Mr 25,000; catalogue number 23966 Polysciences, Inc., Warrington, Pa., USA) with a PEI:DNA ratio of 4:1. Usually, 0.1-0.25 μg of the donor constructions and 1.75-1.9 μg of the acceptors constructions were transfected for the BRET measurement.

T1 sequence (Q8NER1 whole entry): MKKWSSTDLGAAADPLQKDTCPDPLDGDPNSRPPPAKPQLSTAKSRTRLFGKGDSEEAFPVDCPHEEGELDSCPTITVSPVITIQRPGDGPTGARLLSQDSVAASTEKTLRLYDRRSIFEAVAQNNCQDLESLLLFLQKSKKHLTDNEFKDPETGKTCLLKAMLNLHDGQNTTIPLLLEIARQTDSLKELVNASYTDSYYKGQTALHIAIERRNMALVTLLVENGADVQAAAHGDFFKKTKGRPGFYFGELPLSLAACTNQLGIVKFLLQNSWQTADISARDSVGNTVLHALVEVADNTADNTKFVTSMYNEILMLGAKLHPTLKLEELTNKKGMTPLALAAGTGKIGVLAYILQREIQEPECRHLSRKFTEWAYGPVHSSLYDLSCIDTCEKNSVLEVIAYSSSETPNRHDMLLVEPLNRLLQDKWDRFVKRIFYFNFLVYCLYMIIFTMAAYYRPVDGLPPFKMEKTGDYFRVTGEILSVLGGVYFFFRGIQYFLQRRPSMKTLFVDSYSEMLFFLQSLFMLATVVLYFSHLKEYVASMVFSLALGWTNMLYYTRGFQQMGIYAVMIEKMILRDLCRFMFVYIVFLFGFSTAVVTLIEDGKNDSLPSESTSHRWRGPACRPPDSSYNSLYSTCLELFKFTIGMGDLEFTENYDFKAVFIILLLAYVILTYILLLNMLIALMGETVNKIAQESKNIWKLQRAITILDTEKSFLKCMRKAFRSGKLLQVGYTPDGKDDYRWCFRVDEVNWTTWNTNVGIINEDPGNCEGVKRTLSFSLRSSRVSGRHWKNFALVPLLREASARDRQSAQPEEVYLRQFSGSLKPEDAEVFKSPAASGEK

| Structure (SMILES) | Change of basal BRET signal | Effect on CAPS-induced BRET increase (intermolecular test) |
| --- | --- | --- |
| CC(=O)OCOC(=O)CN(CC(=O)OCOC(C)=O)c1ccccc1OCCOc1ccccc1N(CC(=O)OCOC(C)=O)CC(=O)OCOC(C)=O [BAPTA-AM] | severely diminished | abolished |
| C[C@H](CCC(=O)O)C[C@H](C)C[C@H](C)C(=O)/C=C(\O)[C@H](C)C[C@H](C)C/C=C/[C@@H](C)[C@@H](O)[C@@H](C)[C@@H](O)C[C@@H]1CC[C@@](C)([C@H]2CC[C@@](C)([C@@H](C)O)O2)O1 [ionomycin] | no effect | – |
